Structure (SMILES)	melting point [°C]
COc1cc(Cc2nnc(N[C@H]3CC[C@H](C(C)C)CC3)c3ccccc23)ccn1	65 to 66
COc1ccc2nc3ccc(CC(=O)O)cn3c(=O)c2c1	281 to 282
CC12CCC(C(=Cc3ccc(CC(SSCC(=O)O)C(=O)O)cc3)C1=O)C2(C)C (configuration not stated)	116
CCC(CC)N(O)C(=O)Nc1ccc(-c2ccccc2)cc1	183 to 184
COc1ccc(C#CC(C)N(O)C(N)=O)o1 (configuration not stated)	131
COc1ccc2c(c1)C(=O)c1ccccc1C2	94.5 to 97.5
O=C(NCCCCOc1ccc(-n2ccnc2)cc1)c1ccc(Br)cc1	140 to 141
CN1CC(CO)C=C2c3cccc4[nH]c(Cl)c(c34)CC21 (configuration not stated)	207
COC(=O)C(=O)NCCSC(c1ccccc1)c1ccccc1	88 to 89
Nc1nnc(C(=O)OCc2ccccc2)s1	198 to 200
CC(Nc1nc(-c2ccc([N+](=O)[O-])cc2)nc2[nH]ccc12)c1ccccc1 (configuration not stated)	> 250
Cc1ccc(C[C@@H]2CN(C(=O)/C=C/c3ccccc3)CCN2C(=O)c2cc(C(F)(F)F)cc(C(F)(F)F)c2)cc1C	87 to 91
CS(=O)(=O)c1ccc(-c2[nH]c3ccccc3c2-c2ccc(Br)cc2)cc1	225 to 226
CC(=O)SCC(CC(C)C)C(=O)NCC(=O)O (configuration not stated)	120 to 121
COc1ccc(C2=NN(CCCCOc3ccc(C4=NNC(=O)CC4C)c(F)c3F)C(=O)C2(C)C)c2cc(C(F)(F)F)sc12 (configuration not stated)	137 to 138
O=C1C(c2ccccc2)=C(c2ccccc2)C(=O)N1c1ccccc1	173 to 174
COc1ccc2[nH]cc(CCN3CCC(c4ccc(C)cc4)CC3)c2c1	131 to 133
CN1c2ccccc2C(c2ccccc2F)=Nc2cccnc21	140 to 142
CN(C)CCCn1c(-c2ccc(Br)cc2)cc2c1CCSC2	88 to 90
CCCCCCCCCCc1ccc(COc2ccc(-c3ncc(CCCCCCCCC)cn3)cc2)cc1	105
CNc1ccc(Cl)c(C(=O)Nc2cccc3c4c(oc23)CCCC4)c1Cl	160 to 162
CC(Oc1ccc2nc(NC(=O)NCCN3CCN(Cc4ccccc4)CC3)sc2c1)c1c(Cl)ccc(F)c1Cl (configuration not stated)	125 to 139
CNc1nc(N)nc(NC2CC2)n1	159 to 162
CCCCOc1nc(N)c2ncn(C3CCCCC3)c2n1	138 to 141

Structure (SMILES)	melting point [°C]
O=C(O)c1cc(-c2ccc3c(c2)CCO3)nn(CC=Cc2ccc(Cl)cc2)c1=O	177 to 181
COC(=O)C=Cc1ccc(Cl)c([N+](=O)[O-])c1	107
CC(C)(C)OC(=O)N1CCN(C(=O)OC[C@@]2(C)Cn3cc([N+](=O)[O-])nc3O2)CC1	211 to 212
NC(=O)C1CCc2[nH]c3ccc(Cl)c(Cl)c3c2C1 (configuration not stated)	246 to 247
CN1CCN(c2ccc(N/C=C3\C(=O)NC(=O)c4ccc(I)cc43)cc2)CC1	220 to 221
N#CCc1cc([N+](=O)[O-])c(F)cc1Cl	67 to 68
CCCc1cc(O)nc(SCC(N)=O)n1	200 to 203
O=C(NCc1ccc(Cl)cc1)c1cnc2sc(Br)cc2c1O	234 to 236
Nc1nc(Cl)cc(NCC2(CO)CC(=O)C2)n1	171 to 173
COc1ccc(C(=O)Nc2ccccc2)cc1Nc1cc(C)cc(C)c1	198 to 199
Cc1cccc(C)c1C(=O)Nc1cccc2c1CCN(C)C2	200 to 201
O=C1CSC(=S)N1c1ccccn1	98
O=C(O)/C=C/C=C(c1ccc(-c2ccccc2)cc1)c1ccc(-c2ccccc2)cc1	253 to 255
OC(Cn1cncn1)(c1ccc(Cl)cc1)C1(F)CC1 (configuration not stated)	128
O=C(Cn1cnc2ccccc21)c1ccc(Cl)cc1Cl	130 to 132
COC(=O)c1ccnc(-c2cccc3cc(Cc4cc(F)cc(Cl)c4)sc23)c1	102 to 103
COC(=O)CCCC(C)(C)c1cc(O)c(C(C)(C)C)cc1O	136 to 139
OC1CCc2c(I)cccc21 (configuration not stated)	83 to 84
NNc1nccc2nc(-c3ccccc3)nn12	216 to 218
CC(=O)OC1CSC(Sc2ccccc2S(C)(=O)=O)C(OC(C)=O)C1OC(C)=O (configuration not stated)	209
COC(=O)CCC(=O)N1CCc2cc(S(=O)(=O)N3CCN(c4ccc(F)cc4)CC3)ccc21	213 to 215
COc1cccc(C(=O)N(C)Cc2cccc3c2C(=O)N(C2CCC(=O)NC2=O)C3=O)c1 (configuration not stated)	216 to 218
Cc1ccc2c(n1)C(=O)N(c1cccc(S(C)(=O)=O)c1C)C2=O	237 to 239
CCc1nn(CCN)c(CC)c1Cc1cc(C#N)cc(C#N)c1	100 to 105

Structure (SMILES)	melting point [°C]
CSc1cc(=O)c2ccc(F)cc2s1	120 to 121
CC1Cc2cc3c(cc2C(c2ccc([N+](=O)[O-])cc2)=NN1c1nc(C(=O)O)cs1)OCO3 (configuration not stated)	> 260
CCOc1ccc2c(c1)c(CC(C)NC(=O)OC(C)(C)C)c1n2CCC1 (configuration not stated)	89 to 90
CC(=O)NC[C@H]1CN(c2ccc(N3CCC(n4ncnn4)CC3)c(F)c2)C(=O)O1	186 to 188
CCOC(=O)C(=CNC(C)(C)C)C(=O)c1cc(F)c(Cl)cc1Cl	87
COc1ccc(CCc2oc3cccc(O)c3c2C)cc1	72 to 75
CCCCCC(CC(=O)Nc1cc(C(N)=O)ccc1C(C)(C)C)c1cc(OC)c(OC)cc1OC (configuration not stated)	166 to 167
CCOC(=O)c1c(N)sc(-c2ccc(OC)cc2)c1C	79 to 80
COc1ccccc1NC(=O)Oc1ccc2c(c1)N(Cc1ccccc1)CCC2	125
CC(C)(C)NC(=O)c1ccccc1C(c1ccc(O)cc1)c1ccc(O)cc1	264 to 266
C[C@H](NC(=O)CCn1cc(C2=C(c3cn(C)c4ccccc34)C(=O)NC2=O)c2ccccc21)C(=O)O	240 to 255
CCC(=CC(CNC(=O)c1cnccc1C(N)=O)=NO)C(C)[N+](=O)[O-] (configuration not stated)	122 to 123
O=C(O)c1ccc(NCCC(c2ccc(Cl)cc2)c2ccc(Cl)cc2)cc1	213 to 215
CC(=O)NS(=O)(=O)c1ccc(C2=C(c3cccc(F)c3)C(=O)C(C)(C)O2)cc1	178 to 179
Cc1cc(-n2ccnc2)c2cccc(OCc3c(Cl)ccc(S(=O)(=O)N4CCC[C@H]4C(=O)NCC4CCN(CCO)CC4)c3Cl)c2n1	160
COc1cccc(C2(CC(=O)O)CNC(=O)C2)c1 (configuration not stated)	144 to 146
c1ccc2c(c1)CCc1c(N3CCN(Cc4c[nH]c5ncccc45)CC3)n[nH]c1-2	245 to 247
Cc1cccc(-c2nc(N)sc2-c2ccc3ncccc3n2)n1	188
Cc1c(Cl)cc2nc(Cl)c(Cl)nc2c1[N+](=O)[O-]	121 to 122
CCOC(=O)c1cc(C#N)c(C)nc1Nc1ccccc1	133 to 135
CC(C)(C)OC(=O)CNC(=O)OCC1c2c(c3ccccc3c3ccccc23)-c2c1c1ccccc1c1ccccc21	170 to 171
CCNC1=NN(c2ccc(Cl)cc2)C(C)C1 (configuration not stated)	57 to 58
Cc1c(-c2c[nH]c3c(-c4ccccc4)cccc23)nc2ccc(F)cc2c1C(=O)O	148 to 150
CCOc1nn(Cc2ccc(OCc3nc(-c4ccccc4)oc3C)cc2)cc1CC(=O)O	125 to 126
